# Experimental data as given in PubChem BioAssay AID248 (DTP/NCI, 2004).
# Several values for one entry are separate records, joined by “and”; a condition that tells them apart may be missing. Equal values may be shown once. Toxic doses and inconclusive results are not listed.
# Test system: L1210 leukemia ip in BDF1 mice, survival T/C
# Assay: NCI In Vivo Anticancer Drug Screen. Data for tumor model L1210 Leukemia (intraperitoneal) in B6D2F1 (BDF1) mice
# Details: vehicle: saline, higher = longer survival
# In short: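 Value reflects the ratio of survival in compound-treated mice to survival in vehicle-treated controls, with both groups carrying the same transplanted tumor.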
smiles,measurement,setting,value
N[C@H](C(=O)O)[C@@H]1CC(Cl)=NO1,T/C,"endpoint: mean survival time, dose: 0.1 mg/kg/injection, schedule: Q03HX024 (ip)",120 % of control
same,T/C,"endpoint: mean survival time, dose: 0.39 mg/kg/injection, schedule: Q01DX009 (sc)",119 % of control and 121 % of control
same,T/C,"endpoint: mean survival time, dose: 0.39 mg/kg/injection, schedule: Q03HX024 (ip)",194 % of control
same,T/C,"endpoint: mean survival time, dose: 0.78 mg/kg/injection, schedule: Q01DX009 (oral)",123 % of control
same,T/C,"endpoint: mean survival time, dose: 1.0 mg/kg/injection, schedule: Q01DX009 (ip)",123 % of control and 124 % of control
same,T/C,"endpoint: mean survival time, dose: 1.56 mg/kg/injection, schedule: Q01DX009 (oral)",151 % of control
same,T/C,"endpoint: mean survival time, dose: 3.12 mg/kg/injection, schedule: Q01DX001 (ip)",107 % of control
same,T/C,"endpoint: mean survival time, dose: 3.12 mg/kg/injection, schedule: Q04DX003 (ip)",107 % of control
same,T/C,"endpoint: mean survival time, dose: 4.0 mg/kg/injection, schedule: Q01DX009 (ip)",152 % of control
same,T/C,"endpoint: mean survival time, dose: 6.2 mg/kg/injection, schedule: Q04DX003 (ip)",115 % of control and 116 % of control
same,T/C,"endpoint: mean survival time, dose: 6.25 mg/kg/injection, schedule: Q01DX001 (ip)",112 % of control
same,T/C,"endpoint: mean survival time, dose: 6.25 mg/kg/injection, schedule: Q01DX009 (oral)",107 % of control and 110 % of control
same,T/C,"endpoint: mean survival time, dose: 6.25 mg/kg/injection, schedule: Q01DX009 (sc)",105 % of control
same,T/C,"endpoint: mean survival time, dose: 12.5 mg/kg/injection, schedule: Q01DX001 (ip)",119 % of control
same,T/C,"endpoint: mean survival time, dose: 12.5 mg/kg/injection, schedule: Q01DX009 (sc)",101 % of control
same,T/C,"endpoint: mean survival time, dose: 12.5 mg/kg/injection, schedule: Q04DX003 (ip)",109 % of control and 110 % of control
same,T/C,"endpoint: mean survival time, dose: 16.0 mg/kg/injection, schedule: Q01DX009 (ip)",102 % of control
same,T/C,"endpoint: mean survival time, dose: 25.0 mg/kg/injection, schedule: Q01DX009 (sc)",94 % of control and 95 % of control
same,T/C,"endpoint: mean survival time, dose: 25.0 mg/kg/injection, schedule: Q03HX008 (ip)",153 % of control
same,T/C,"endpoint: mean survival time, dose: 25.0 mg/kg/injection, schedule: Q04DX003 (ip)",116 % of control and 120 % of control
same,T/C,"endpoint: mean survival time, dose: 32.0 mg/kg/injection, schedule: Q01DX009 (ip)",104 % of control and 115 % of control
same,T/C,"endpoint: mean survival time, dose: 50.0 mg/kg/injection, schedule: Q04DX003 (ip)",120 % of control and 123 % of control
same,T/C,"endpoint: median survival time, dose: 0.25 mg/kg/injection, schedule: Q03HX024 (ip)",117 % of control
same,T/C,"endpoint: median survival time, dose: 0.39 mg/kg/injection, schedule: Q03HX024 (ip)",175 % of control
same,T/C,"endpoint: median survival time, dose: 0.5 mg/kg/injection, schedule: Q03HX016 (ip)",124 % of control
same,T/C,"endpoint: median survival time, dose: 0.78 mg/kg/injection, schedule: Q01DX009 (ip)",153 % of control
same,T/C,"endpoint: median survival time, dose: 0.78 mg/kg/injection, schedule: Q03HX016 (ip)",150 % of control
same,T/C,"endpoint: median survival time, dose: 0.78 mg/kg/injection, schedule: Q03HX024 (ip)",191 % of control
same,T/C,"endpoint: median survival time, dose: 1.0 mg/kg/injection, schedule: Q01DX009 (sc)",122 % of control
same,T/C,"endpoint: median survival time, dose: 1.0 mg/kg/injection, schedule: Q03HX008 (ip)",120 % of control
same,T/C,"endpoint: median survival time, dose: 1.0 mg/kg/injection, schedule: Q03HX024 (ip)",159 % of control
same,T/C,"endpoint: median survival time, dose: 1.56 mg/kg/injection, schedule: Q03HX016 (ip)",159 % of control
same,T/C,"endpoint: median survival time, dose: 2.0 mg/kg/injection, schedule: Q03HX016 (ip)",150 % of control
same,T/C,"endpoint: median survival time, dose: 2.0 mg/kg/injection, schedule: Q03HX024 (ip)",181 % of control
same,T/C,"endpoint: median survival time, dose: 2.0 mg/kg/injection, schedule: Q04DX003 (ip)",106 % of control
same,T/C,"endpoint: median survival time, dose: 3.12 mg/kg/injection, schedule: Q01DX009 (ip)",94 % of control
same,T/C,"endpoint: median survival time, dose: 3.12 mg/kg/injection, schedule: Q03HX008 (ip)",154 % of control
same,T/C,"endpoint: median survival time, dose: 3.12 mg/kg/injection, schedule: Q03HX016 (ip)",166 % of control
same,T/C,"endpoint: median survival time, dose: 4.0 mg/kg/injection, schedule: Q01DX009 (ip)",158 % of control
same,T/C,"endpoint: median survival time, dose: 4.0 mg/kg/injection, schedule: Q03HX016 (ip)",153 % of control
same,T/C,"endpoint: median survival time, dose: 4.0 mg/kg/injection, schedule: Q04DX003 (ip)",110 % of control
same,T/C,"endpoint: median survival time, dose: 4.0 mg/kg/injection, schedule: Q08DX002 (ip)",104 % of control
same,T/C,"endpoint: median survival time, dose: 6.25 mg/kg/injection, schedule: Q03HX016 (ip)",182 % of control
same,T/C,"endpoint: median survival time, dose: 8.0 mg/kg/injection, schedule: Q01DX001 (ip)",100 % of control
same,T/C,"endpoint: median survival time, dose: 8.0 mg/kg/injection, schedule: Q01DX001 (sc)",114 % of control
same,T/C,"endpoint: median survival time, dose: 8.0 mg/kg/injection, schedule: Q01DX009 (ip)",165 % of control
same,T/C,"endpoint: median survival time, dose: 8.0 mg/kg/injection, schedule: Q01DX009 (sc)",162 % of control
same,T/C,"endpoint: median survival time, dose: 8.0 mg/kg/injection, schedule: Q03HX016 (ip)",162 % of control
same,T/C,"endpoint: median survival time, dose: 8.0 mg/kg/injection, schedule: Q08DX002 (ip)",114 % of control
same,T/C,"endpoint: median survival time, dose: 12.5 mg/kg/injection, schedule: Q01DX001 (ip)",115 % of control
same,T/C,"endpoint: median survival time, dose: 12.5 mg/kg/injection, schedule: Q03HX016 (ip)",171 % of control
same,T/C,"endpoint: median survival time, dose: 12.5 mg/kg/injection, schedule: Q03HX024 (ip)",93 % of control
same,T/C,"endpoint: median survival time, dose: 12.5 mg/kg/injection, schedule: Q04DX003 (ip)",153 % of control
same,T/C,"endpoint: median survival time, dose: 12.5 mg/kg/injection, schedule: Q08DX002 (ip)",151 % of control
same,T/C,"endpoint: median survival time, dose: 16.0 mg/kg/injection, schedule: Q01DX001 (ip)",99 % of control
same,T/C,"endpoint: median survival time, dose: 16.0 mg/kg/injection, schedule: Q01DX001 (sc)",105 % of control
same,T/C,"endpoint: median survival time, dose: 16.0 mg/kg/injection, schedule: Q01DX009 (oral)",94 % of control
same,T/C,"endpoint: median survival time, dose: 16.0 mg/kg/injection, schedule: Q01DX009 (sc)",109 % of control
same,T/C,"endpoint: median survival time, dose: 16.0 mg/kg/injection, schedule: Q03HX016 (ip)",155 % of control
same,T/C,"endpoint: median survival time, dose: 16.0 mg/kg/injection, schedule: Q04DX003 (ip)",120 % of control
same,T/C,"endpoint: median survival time, dose: 16.0 mg/kg/injection, schedule: Q08DX002 (ip)",106 % of control
same,T/C,"endpoint: median survival time, dose: 25.0 mg/kg/injection, schedule: Q01DX001 (ip)",108 % of control
same,T/C,"endpoint: median survival time, dose: 25.0 mg/kg/injection, schedule: Q04DX003 (ip)",154 % of control
same,T/C,"endpoint: median survival time, dose: 32.0 mg/kg/injection, schedule: Q01DX001 (ip)",113 % of control
same,T/C,"endpoint: median survival time, dose: 32.0 mg/kg/injection, schedule: Q01DX001 (sc)",107 % of control
same,T/C,"endpoint: median survival time, dose: 32.0 mg/kg/injection, schedule: Q01DX009 (ip)",103 % of control
same,T/C,"endpoint: median survival time, dose: 32.0 mg/kg/injection, schedule: Q08DX002 (ip)",114 % of control
same,T/C,"endpoint: median survival time, dose: 50.0 mg/kg/injection, schedule: Q01DX001 (ip)",122 % of control
same,T/C,"endpoint: median survival time, dose: 50.0 mg/kg/injection, schedule: Q04DX003 (ip)",188 % of control
same,T/C,"endpoint: median survival time, dose: 50.0 mg/kg/injection, schedule: Q08DX002 (ip)",151 % of control
same,T/C,"endpoint: median survival time, dose: 64.0 mg/kg/injection, schedule: Q01DX001 (ip)",113 % of control
same,T/C,"endpoint: median survival time, dose: 64.0 mg/kg/injection, schedule: Q01DX001 (oral)",112 % of control and 114 % of control
same,T/C,"endpoint: median survival time, dose: 64.0 mg/kg/injection, schedule: Q01DX001 (sc)",116 % of control
same,T/C,"endpoint: median survival time, dose: 64.0 mg/kg/injection, schedule: Q08DX002 (ip)",109 % of control
same,T/C,"endpoint: median survival time, dose: 128.0 mg/kg/injection, schedule: Q01DX001 (ip)",116 % of control
same,T/C,"endpoint: median survival time, dose: 128.0 mg/kg/injection, schedule: Q01DX001 (oral)",119 % of control
same,T/C,"endpoint: median survival time, dose: 128.0 mg/kg/injection, schedule: Q01DX001 (sc)",115 % of control
same,T/C,"endpoint: median survival time, dose: 128.0 mg/kg/injection, schedule: Q08DX002 (ip)",119 % of control
same,T/C,"endpoint: median survival time, dose: 256.0 mg/kg/injection, schedule: Q01DX001 (ip)",110 % of control
same,T/C,"endpoint: median survival time, dose: 256.0 mg/kg/injection, schedule: Q01DX001 (oral)",116 % of control
same,T/C,"endpoint: median survival time, dose: 256.0 mg/kg/injection, schedule: Q01DX001 (sc)",120 % of control
same,T/C,"endpoint: median survival time, dose: 400.0 mg/kg/injection, schedule: Q01DX001 (ip)",93 % of control
same,T/C,"endpoint: median survival time, dose: 400.0 mg/kg/injection, schedule: Q08DX002 (ip)",116 % of control
